The nature of data set [1]: Inhibition of full length human ABCB1 expressed in Flp-In-293 cells assessed as potentiation of doxorubicin-induced cytotoxicity by measuring doxorubicin IC50 at 8 uM after 72 hrs by SRB assay (Rvb = 914.83 +/- 15.85 nM). (In general: Sulforhodamine B stains cellular protein and so reports cell mass.)
A short description of data set [2]: Inhibition of ABCB1 in human KBVIN cells assessed as potentiation of paclitaxel-induced cytotoxicity by measuring paclitaxel IC50 at 10 uM after 72 hrs by SRB assay (Rvb = 1196.09 +/- 44.8 nM).
The nature of data set [3]: Inhibition of full length human ABCB1 expressed in Flp-In-293 cells assessed as potentiation of vincristine-induced cytotoxicity by measuring vincristine IC50 at 10 uM after 72 hrs by SRB assay (Rvb = 823.13 +/- 15.79 nM).
A short description of data set [4]: Inhibition of ABCB1 in human KBVIN cells assessed as potentiation of paclitaxel-induced cytotoxicity by measuring paclitaxel IC50 at 8 uM after 72 hrs by SRB assay (Rvb = 1196.09 +/- 44.8 nM).
Data set [5] is described as follows: Inhibition of full length human ABCB1 expressed in Flp-In-293 cells assessed as potentiation of doxorubicin-induced cytotoxicity by measuring doxorubicin IC50 at 10 uM after 72 hrs by SRB assay (Rvb = 914.83 +/- 15.85 nM).
Data set [6] is described as follows: Inhibition of full length human ABCB1 expressed in Flp-In-293 cells assessed as potentiation of paclitaxel-induced cytotoxicity by measuring paclitaxel IC50 at 8 uM after 72 hrs by SRB assay (Rvb = 644.78 +/- 2.6 nM).
Data set [7] is described as follows: Inhibition of full length human ABCB1 expressed in Flp-In-293 cells assessed as potentiation of vincristine-induced cytotoxicity by measuring vincristine IC50 at 8 uM after 72 hrs by SRB assay (Rvb = 823.13 +/- 15.79 nM).
Data set [8] is described as follows: Inhibition of full length human ABCB1 expressed in Flp-In-293 cells assessed as potentiation of paclitaxel-induced cytotoxicity by measuring paclitaxel IC50 at 10 uM after 72 hrs by SRB assay (Rvb = 644.78 +/- 2.6 nM).
Data set [9] is described as follows: Inhibition of ABCB1 in human KBVIN cells assessed as potentiation of vincristine-induced cytotoxicity by measuring vincristine IC50 at 10 uM after 72 hrs by SRB assay (Rvb = 2867.34 +/- 142.36 nM).
The nature of data set [10]: Inhibition of ABCB1 in human KBVIN cells assessed as potentiation of vincristine-induced cytotoxicity by measuring vincristine IC50 at 8 uM after 72 hrs by SRB assay (Rvb = 2867.34 +/- 142.36 nM).

A word on the IC50: it is the midpoint of a concentration-inhibition curve. Take `Cc1cccc(-c2coc3c(c(O)cc4occ(-c5cccc(C)c5)c(=O)c43)c2=O)c1`: the IC50 in [1] stood at 664 nM; in [2], 52 nM; in data set [3] it was 39 nM; in data set [4] it was 63 nM; in data set [5], 586 nM; in [6] it was 60 nM. Further, the IC50 in data set [7] turned out to be 53 nM; in data set [8] it was 40 nM; in data set [9] it was 96 nM; in data set [10] it was 390 nM.
Consider `COc1ccc(-c2coc3c(c(O)cc4occ(-c5ccc(OC)cc5)c(=O)c43)c2=O)cc1`, for which the IC50 in data set [1] was determined as 576 nM; in data set [3], 500 nM; in data set [5] it was 544 nM; in [6], 303 nM; in data set [7], 577 nM; in data set [8] it was 79 nM.
For `COc1ccc(-c2coc3c(c(O)cc4occ(-c5ccc(OC)c(OC)c5)c(=O)c43)c2=O)cc1OC`, the IC50 in [1] is 597 nM; in data set [3] it was 85 nM; in [5], 594 nM; in data set [6], 73 nM; in data set [7], 203 nM; in data set [8] it was 68 nM.

The values above are taken from BindingDB's records for doi:10.1016/j.ejmech.2016.03.070 (China Medical University, 2016).
